Results as given in US11103488B2, “Methods of treating autoimmune, respiratory and inflammatory disorders by inhalation of roflumilast N-oxide” (Incozen Therapeutics Pvt. Ltd., priority 2013, dated 2021).
Like-named read-outs stand apart in the source and are kept apart here.

Columns and labels:
[1] = Lung microsome metabolic stability, human; format: in vitro ADME; settings: 1 μM test item, 60 minutes, NADPH
Experimental: (§1) Metabolic stability studies were conducted using rat, dog and human lung microsomes. The protocol for the studies with rat, dog, and human lung microsomes (from Xenotech, USA) is provided below.
(§2) 0.4 mg protein was preincubated with 2 mM NADPH (cofactor) in phosphate buffer (pH˜7.4) for 15 minutes at […] and then added with 1 μM test item and incubated further for 60 minutes in triplicate. The reaction mixture was terminated with methanol containing an internal standard and centrifuged further to analyze the test item remaining in the supernatant by LC-MS/MS. The percent parent compound remaining was calculated in comparison with similar samples terminated at 0 minutes.

[2] = system: macrophage infiltration; experiment: Acute cigarette smoke induced cell infiltration, macrophages; format: in vivo, female Balb/c mice; settings: for Percent inhibition in macrophage infiltration: oral, day 1 to day 4
Experimental: (§3) Animals were acclimatized for seven days prior to the start of the experiment. The animals were randomly distributed to various groups based on their body weight. For oral administration of roflumilast and for intranasal administration of roflumilast N-oxide, roflumilast or roflumilast N-oxide were prepared as a suspension in a suitable vehicle. On day 1, mice were administered roflumilast N-oxide or roflumilast and after 1 hour, the animals were placed in a whole body exposure box. On day 1 and day 2, the mice were exposed to the mainstream smoke of 6 cigarettes, and 8 cigarettes on day 3 and day 4. Exposure to the smoke of each cigarette lasted for 10 minutes (cigarettes were completely burned in the first two minutes and followed by an air flow with animal ventilator, then 20 minutes exposure to fresh room air). After every second cigarette an additional break of 20 minutes with exposure to fresh room air was conducted. Control animals were exposed to room air chamber. From day 1 to day 4, the animals were administered roflumilast N-oxide or roflumilast. On day 5, 24 hours after the last cigarette smoke (CS) exposure, the animals were exsanguinated under anaesthesia, the trachea were cannulated and the lungs were lavaged with 0.5-ml aliquots of heparinised PBS (1 unit/ml) four times through tracheal cannula (total volume 2 ml). Bronchioalveolar (BAL) collected was stored at 2-8° C. until assayed for total cell and differential leukocyte count. BAL fluid was centrifuged (500×g for 10 minutes) and the resulting cell pellet was resuspended in 0.5 ml of heparinised saline. The total number of white blood cells was determined in BAL fluid and adjusted to 1×10^6 cell/ml. Differential cell count was calculated manually by diff-quick staining. Forty microliters of the cell suspension was centrifuged using cytospin 3 to prepare a cell smear. The cell smear was stained with a blood staining solution for differentiation and microscopically observed to identify cell type according to their morphological characteristics. The number of each cell type among 300 white blood cells in the cell smear were determined and expressed as a percentage, and the number of neutrophils and macrophages in each BAL fluid were calculated.
(§4) Roflumilast and roflumilast N-oxide as a suspension in polysorbate 80 (1% v/v) and methyl cellulose (MC) (0.5% w/v) were used for oral and intranasal administration respectively.

[3] = Lung microsome metabolic stability, dog; format: in vitro ADME; settings: dog lung microsomes, 1 μM test item, 60 minutes, NADPH
Experimental: as §1, §2

[4] = 7-day repeat dose safety study; format: in vivo, Wistar Rats
Experimental: In order to determine the safety of roflumilast N-oxide by inhalation compared to roflumilast by oral administration, a 7- and 14-day repeat dose safety study was conducted according to the protocol given in Table 5 below.

[5] = roflumilast n = 4438; count, second figure in brackets; cited from earlier work
[6] = Lung microsome metabolic stability, rat; format: in vitro ADME; settings: rat lung microsomes, 1 μM test item, 60 minutes, NADPH
Experimental: as §1, §2

[7] = system: neutrophil infiltration (LPS-induced neutrophilia in BALF); experiment: Lipopolysaccharide (LPS) induced pulmonary neutrophilia; format: in vivo, female Sprague-Dawley rat; settings: for ED50: Rattus norvegicus, Neutrophil, read-out: 50% inhibition (ED50) dose, neutrophil infiltration
Experimental: Roflumilast was prepared as a suspension in a suitable vehicle for oral administration. For intratracheal administration, roflumilast or roflumilast N-oxide was prepared as a dry powder mixture and administered by using a dry powder Insufflator (Penn-Century, USA) Animals were anaesthetized with ketamine and LPS solution was administered intratracheally one hour after roflumilast (at a dose of 0.3, 1, 3, and 10 mg/kg orally), or 30 minutes after roflumilast (at a dose of 10, 30 and 100 μg/kg i.t) or roflumilast N-oxide administration (at a dose of 10, 30 and 100 μg/kg, i.t). 6 hours after LPS instillation, animals were exsanguinated under anaesthesia, and then trachea were cannulated and the lungs were lavaged with 5-ml aliquots of heparinised PBS (1 unit/ml) four times through tracheal cannula (total volume 20 ml). BAL (bronchoalveolar lavage) fluid was stored at 2-8° C. until assayed for total cell and differential leukocyte count. Bronchioalveolar fluid was centrifuged (500×g for 10 minutes) and the resulting cell pellet was resuspended in 0.5 ml of heparinized saline. The total number of white blood cells were determined in BAL fluid using a blood cell counter and were adjusted to 1×10^6 cell/ml. Differential cell count was calculated manually. One hundred microliters of the cell suspension was centrifuged using cytospin 3 to prepare a cell smear. The cell smear was stained with a blood staining solution for differentiation and slides were microscopically observed to identify eosinophil according to their morphological characteristics. The number of each cell type among 300 white blood cells in the cell smear was determined and expressed as a percentage. The total number of neutrophils in each BAL fluid was calculated.
Roflumilast and roflumilast N-oxide were administered intratracheally (i.t) at doses of 100, 30, and 10 μg/kg as 1:200; 1:500; and 1:1000 drug:lactose blends, respectively.

[8] = system: neutrophil infiltration; experiment: Acute cigarette smoke induced cell infiltration, neutrophils; format: in vivo, female Balb/c mice; settings: for Percent inhibition in neutrophil infiltration: oral, day 1 to day 4
Experimental: as §3, §4

Q: Which “Percent Parent Compound Remaining, Human Non Smoker” value ([1]; human non smoker lung microsomes) does the source give for O=C(Nc1c(Cl)cncc1Cl)c1ccc(OC(F)F)c(OCC2CC2)c1 [Roflumilast] here?
A: 99.8%

Q: And the “Percent Parent Compound Remaining, Human Smoker” value ([1]; human smoker lung microsomes)?
A: 98.8%

Q: And the ED50 ([2]; Mus musculus, Macrophage, oral administration, read-out: 50% inhibition (ED50) dose, macrophage infiltration)?
A: 3.5 mg/kg

Q: And the “Percent inhibition in macrophage infiltration” value ([2]; 1 mg/kg (b.i.d. per FIG. 4))?
A: 22.2%

Q: And the “Percent inhibition in macrophage infiltration” value ([2]; 3 mg/kg (b.i.d. per FIG. 4))?
A: 51.00%

Q: What about the “Percent inhibition in macrophage infiltration” value ([2]; 10 mg/kg (b.i.d. per FIG. 4)) of the same compound?
A: 69.11%

Q: What about the “Percent Parent Compound Remaining, Dog” value [3] of the same compound?
A: 97.4%

Q: And the MORTALITY ([4]; Oral, 10 mg/Kg/day, 7 days)?
A: 1M animal died on day 7

Q: And the “Multiple of ED50 at which toxic” value ([4]; Wistar, rat, in vivo, 7 days)?
A: 5.5 fold

Q: And the “Overall safety in repeat dose study” value ([4]; rat, in vivo, po, 10 mg/kg)?
A: showed significant toxicity

Q: And the “CLINICAL CHEMISTRY” value ([4]; rat, in vivo, po, 10 mg/kg/day)?
A: Yes, reduced serum

Q: What about the “CLINICAL SIGNS” value ([4]; rat, in vivo, po, 10 mg/kg/day) of the same compound?
A: Abnormal clinical

Q: And the “GROSS PATHOLOGY” value ([4]; rat, in vivo, po, 10 mg/kg/day)?
A: Yes, treatment related

Q: What about the HEMATOLOGY ([4]; rat, in vivo, po, 10 mg/kg/day) of the same compound?
A: Yes, elevated WBC

Q: What about the “AEs: Back pain” value [5] of the same compound?
A: 142 (3.2)

Q: And the “AEs: Decreased appetite” value [5]?
A: 91 (2.1)

Q: And the “AEs: Diarrhoea” value [5]?
A: 420 (9.5)

Q: And the “AEs: Dizziness” value [5]?
A: 92 (2.1)

Q: And the “AEs: Headache” value [5]?
A: 195 (4.4)

Q: What about the “AEs: Influenza” value [5] of the same compound?
A: 124 (2.8)

Q: And the “AEs: Insomnia” value [5]?
A: 105 (2.4)

Q: What about the “AEs: Nausea” value [5] of the same compound?
A: 209 (4.7)

Q: What about the “AEs: Weight loss” value [5] of the same compound?
A: 331 (7.5)

Q: And the “Percent Parent Compound Remaining, Rat” value [6]?
A: 97.1%

Q: And the ED50 ([7]; inhaled or nasal, intratracheal administration)?
A: 0.026 mg/kg

Q: What about the ED50 ([7]; oral administration) of the same compound?
A: 1.8 mg/kg

Q: What about the “Percent inhibition in neutrophil infiltration” value ([7]; intratracheal dry powder, 10 μg/kg, 30 minutes before LPS) of the same compound?
A: 31.76%

Q: And the “Percent inhibition in neutrophil infiltration” value ([7]; intratracheal dry powder, 30 μg/kg, 30 minutes before LPS)?
A: 60.47%

Q: What about the “Percent inhibition in neutrophil infiltration” value ([7]; intratracheal dry powder, 100 μg/kg, 30 minutes before LPS) of the same compound?
A: 64.40%

Q: What about the “Percent inhibition in neutrophil infiltration” value ([7]; oral, 0.3 mg/kg, one hour before LPS, BAL 6 hours after LPS) of the same compound?
A: −7.89%

Q: And the “Percent inhibition in neutrophil infiltration” value ([7]; oral, 1 mg/kg, one hour before LPS, BAL 6 hours after LPS)?
A: 43.46%

Q: What about the “Percent inhibition in neutrophil infiltration” value ([7]; oral, 3 mg/kg, one hour before LPS, BAL 6 hours after LPS) of the same compound?
A: 68.02%

Q: And the “Percent inhibition in neutrophil infiltration” value ([7]; oral, 10 mg/kg, one hour before LPS, BAL 6 hours after LPS)?
A: 92.21%

Q: What about the ED50 ([8]; Mus musculus, Neutrophil, oral administration, read-out: 50% inhibition (ED50) dose, neutrophil infiltration) of the same compound?
A: 1.75 mg/kg

Q: What about the “Percent inhibition in neutrophil infiltration” value ([8]; 1 mg/kg (b.i.d. per FIG. 4)) of the same compound?
A: 70.85%

Q: What about the “Percent inhibition in neutrophil infiltration” value ([8]; 3 mg/kg (b.i.d. per FIG. 4)) of the same compound?
A: 73.69%

Q: What about the “Percent inhibition in neutrophil infiltration” value ([8]; 10 mg/kg (b.i.d. per FIG. 4)) of the same compound?
A: 83.01%
